# Test results as given in ChEMBL document CHEMBL1143809, “New bis-N9-(methylphenylmethyl)purine derivatives: synthesis and antitumor activity” (2007).
# Assays:
# Format in all cases: functional
# SK-MEL-2 = assay: Growth inhibition of human SK-MEL-2 cells after 48 hrs by SRB protein assay; settings: SK-MEL-2, 48 h; for CC50: read-out: LC50 (the source's name)
# SK-MEL-28 = assay: Growth inhibition of human SK-MEL-28 cells after 48 hrs by SRB protein assay; settings: SK-MEL-28, 48 h
# OVCAR-3 = assay: Growth inhibition of human OVCAR-3 cells after 48 hrs by SRB protein assay; settings: OVCAR-3, 48 h
# IGROV-1 = assay: Growth inhibition of human IGROV1 cells after 48 hrs by SRB protein assay; settings: IGROV-1, 48 h
# OVCAR-5 = assay: Growth inhibition of human OVCAR5 cells after 48 hrs by SRB protein assay; settings: OVCAR-5, 48 h; for CC50: read-out: LC50 (the source's name)
# NCI-H460 [1] = assay: Anticancer activity against human NCL-H460 cells assessed as growth at 100 uM after 48 hrs by SRB protein assay relative to control; settings: NCI-H460, 48 h, read-out: Activity
# MCF7 [2] = assay: Anticancer activity against human MCF7 cells assessed as growth at 100 uM after 48 hrs by SRB protein assay relative to control; settings: MCF7, 48 h, read-out: Activity
# SF-268 = assay: Anticancer activity against human SF268 cells assessed as growth at 100 uM after 48 hrs by SRB protein assay relative to control; settings: SF-268, 48 h, read-out: Activity
# CCRF-CEM = assay: Growth inhibition of human CCRF-CEM cells after 48 hrs by SRB protein assay; settings: for CC50: read-out: LC50 (the source's name)
# K562 = assay: Growth inhibition of human K562 cells after 48 hrs by SRB protein assay; settings: K562, 48 h; for CC50: read-out: LC50 (the source's name)
# MOLT-4 = assay: Growth inhibition of human MOLT4 cells after 48 hrs by SRB protein assay; settings: MOLT-4, 48 h
# A549 = assay: Growth inhibition of human A549 cells after 48 hrs by SRB protein assay; settings: A549, 48 h
# EKVX = assay: Growth inhibition of human EKVX cells after 48 hrs by SRB protein assay
# [3] = Growth inhibition of human NCL-H226 cells after 48 hrs by SRB protein assay; settings: NCL-H226, 48 h
# [4] = Growth inhibition of human NCL-H322M cells after 48 hrs by SRB protein assay; settings: for CC50: read-out: LC50 (the source's name)
# NCI-H460 [5] = assay: Growth inhibition of human NCL-H460 cells after 48 hrs by SRB protein assay; settings: NCI-H460, 48 h; for CC50: read-out: LC50 (the source's name)
# [6] = Growth inhibition of human NCL-H522 cells after 48 hrs by SRB protein assay; settings: NCL-H522, 48 h
# SF-295 = assay: Growth inhibition of human SF295 cells after 48 hrs by SRB protein assay; settings: SF-295, 48 h
# SF-539 = assay: Growth inhibition of human SF539 cells after 48 hrs by SRB protein assay; settings: SF-539, 48 h
# SNB-19 = assay: Growth inhibition of human SNB19 cells after 48 hrs by SRB protein assay; settings: SNB-19, 48 h; for CC50: read-out: LC50 (the source's name)
# OVCAR-8 = assay: Growth inhibition of human OVCAR8 cells after 48 hrs by SRB protein assay; settings: OVCAR-8, 48 h
# ACHN = assay: Growth inhibition of human ACHN cells after 48 hrs by SRB protein assay
# SN12C = assay: Growth inhibition of human SN12C cells after 48 hrs by SRB protein assay
# TK-10 = assay: Growth inhibition of human TK10 cells after 48 hrs by SRB protein assay; settings: TK-10, 48 h
# UO-31 = assay: Growth inhibition of human UO31 cells after 48 hrs by SRB protein assay; settings: UO-31, 48 h
# DU-145 = assay: Growth inhibition of human DU145 cells after 48 hrs by SRB protein assay; settings: DU-145, 48 h; for CC50: read-out: LC50 (the source's name)
# MCF7 [7] = assay: Growth inhibition of human MCF7 cells after 48 hrs by SRB protein assay; settings: MCF7, 48 h
# NCI/ADR-RES = assay: Growth inhibition of human NCI/ADR-RES cells after 48 hrs by SRB protein assay
# MDA-MB-435 = assay: Growth inhibition of human MDA-MB-435 cells after 48 hrs by SRB protein assay; settings: MDA-MB-435, 48 h
# BT-549 = assay: Growth inhibition of human BT549 cells after 48 hrs by SRB protein assay; settings: BT-549, 48 h; for CC50: read-out: LC50 (the source's name)
# T47D = assay: Growth inhibition of human T47D cells after 48 hrs by SRB protein assay
# Hs-578T = assay: Growth inhibition of human HS578T cells after 48 hrs by SRB protein assay
# HOP-92 = assay: Growth inhibition of human HOP92 cells after 48 hrs by SRB protein assay; settings: HOP-92, 48 h
# HCT-116 = assay: Growth inhibition of human HCT116 cells after 48 hrs by SRB protein assay; settings: HCT-116, 48 h; for CC50: read-out: LC50 (the source's name)
compound,measurement,setting,value
Clc1nc(Cl)c2ncn(Cc3ccc(Cn4cnc5c(Cl)nc(Cl)nc54)cc3)c2n1,TGI,SK-MEL-2,23.4 µM
same,CC50,SK-MEL-2,49 µM
same,GI50,SK-MEL-28,< 0.01 µM
same,LC50,SK-MEL-28,42.6 µM
same,TGI,SK-MEL-28,18.2 µM
same,GI50,OVCAR-3,13.5 µM
same,LC50,OVCAR-3,51.3 µM
same,TGI,OVCAR-3,26.3 µM
same,GI50,IGROV-1,12.9 µM
same,LC50 (50% lethal concentration),IGROV-1,50.1 µM
same,TGI,IGROV-1,25.1 µM
same,TGI,OVCAR-5,26.3 µM
same,CC50,OVCAR-5,51.3 µM
same,growth at 100 µM,NCI-H460 [1],0%
same,growth at 100 µM,MCF7 [2],0%
same,growth at 100 µM,SF-268,58%
same,GI50,CCRF-CEM,10.2 µM
same,TGI,CCRF-CEM,22.9 µM
same,CC50,CCRF-CEM,51.3 µM
same,GI50,K562,2880 nM
same,TGI,K562,16.6 µM
same,CC50,K562,40.7 µM
same,GI50,MOLT-4,7.94 µM
same,LC50,MOLT-4,45.7 µM
same,TGI,MOLT-4,20.9 µM
same,LC50,A549,50.1 µM
same,TGI,A549,25.1 µM
same,GI50,EKVX,< 0.01 µM
same,LC50,EKVX,44.7 µM
same,TGI,EKVX,19.9 µM
same,GI50,[3],17 µM
same,LC50,[3],93.3 µM
same,TGI,[3],39.8 µM
same,TGI,[4],33.9 µM
same,CC50,[4],91.2 µM
same,GI50,NCI-H460 [5],14.1 µM
same,TGI,NCI-H460 [5],26.9 µM
same,CC50,NCI-H460 [5],52.5 µM
same,GI50,[6],12.3 µM
same,LC50,[6],52.5 µM
same,TGI,[6],25.7 µM
same,GI50,SF-295,19.1 µM
same,LC50,SF-295,85.1 µM
same,TGI,SF-295,40.7 µM
same,LC50,SF-539,37.1 µM
same,TGI,SF-539,13.8 µM
same,TGI,SNB-19,21.9 µM
same,CC50,SNB-19,46.8 µM
same,GI50,OVCAR-8,3.02 µM
same,LC50,OVCAR-8,49 µM
same,TGI,OVCAR-8,8.13 µM
same,GI50,ACHN,12.6 µM
same,LC50,ACHN,50.1 µM
same,TGI,ACHN,25.1 µM
same,GI50,SN12C,14.1 µM
same,LC50,SN12C,52.5 µM
same,TGI,SN12C,27.5 µM
same,GI50,TK-10,13.2 µM
same,LC50 (50% lethal concentration),TK-10,51.3 µM
same,TGI,TK-10,26.3 µM
same,GI50,UO-31,10 µM
same,LC50,UO-31,46.8 µM
same,TGI,UO-31,21.4 µM
same,GI50,DU-145,< 10 nM
same,TGI,DU-145,4.16 µM
same,CC50,DU-145,26.3 µM
same,GI50,MCF7 [7],10.5 µM
same,LC50,MCF7 [7],61.7 µM
same,TGI,MCF7 [7],25.1 µM
same,GI50,NCI/ADR-RES,13.8 µM
same,LC50,NCI/ADR-RES,60.2 µM
same,TGI,NCI/ADR-RES,28.8 µM
same,GI50,MDA-MB-435,16.6 µM
same,LC50,MDA-MB-435,61.7 µM
same,TGI,MDA-MB-435,31.6 µM
same,GI50,BT-549,< 0.01 µM
same,TGI,BT-549,19.1 µM
same,CC50,BT-549,43.6 µM
same,GI50,T47D,1620 nM
same,LC50,T47D,42.6 µM
same,TGI,T47D,13.5 µM
same,GI50,Hs-578T,< 10 nM
same,LC50 (concentration killing 50% of cells),Hs-578T,43.6 µM
same,TGI,Hs-578T,16.2 µM
same,LC50,HOP-92,57.5 µM
same,TGI,HOP-92,26.3 µM
same,GI50,HCT-116,9.33 µM
same,TGI,HCT-116,21.4 µM
same,CC50,HCT-116,46.8 µM
Clc1nc(Cl)c2ncn(Cc3cccc(Cn4cnc5c(Cl)nc(Cl)nc54)c3)c2n1,GI50,SK-MEL-2,2810 nM
same,TGI,SK-MEL-2,7.76 µM
same,CC50,SK-MEL-2,35.5 µM
same,GI50,SK-MEL-28,4.26 µM
same,LC50,SK-MEL-28,> 100 µM
same,TGI,SK-MEL-28,22.4 µM
same,GI50,OVCAR-3,2.39 µM
same,LC50,OVCAR-3,28.2 µM
same,TGI,OVCAR-3,7.24 µM
same,GI50,IGROV-1,7.41 µM
same,LC50 (50% lethal concentration),IGROV-1,47.9 µM
same,TGI,IGROV-1,20.4 µM
same,GI50,OVCAR-5,20.9 µM
same,TGI,OVCAR-5,38 µM
same,CC50,OVCAR-5,70.8 µM
same,growth at 100 µM,NCI-H460 [1],0%
same,growth at 100 µM,MCF7 [2],0%
same,growth at 100 µM,SF-268,0%
same,GI50,CCRF-CEM,2.23 µM
same,TGI,CCRF-CEM,5.37 µM
same,CC50,CCRF-CEM,> 100 µM
same,GI50,K562,3090 nM
same,TGI,K562,17 µM
same,CC50,K562,> 100 µM
same,GI50,MOLT-4,3.46 µM
same,LC50,MOLT-4,> 100 µM
same,TGI,MOLT-4,13.8 µM
same,GI50,A549,11.2 µM
same,LC50,A549,61.6 µM
same,TGI,A549,26.3 µM
same,GI50,EKVX,3.09 µM
same,LC50,EKVX,41.7 µM
same,TGI,EKVX,11 µM
same,GI50,[3],4.78 µM
same,LC50,[3],> 100 µM
same,TGI,[3],26.9 µM
same,GI50,[4],14.1 µM
same,TGI,[4],27.5 µM
same,CC50,[4],52.5 µM
same,GI50,NCI-H460 [5],3.71 µM
same,TGI,NCI-H460 [5],13.5 µM
same,CC50,NCI-H460 [5],58.9 µM
same,GI50,[6],2.88 µM
same,LC50,[6],41.7 µM
same,TGI,[6],7.07 µM
same,GI50,SF-295,16.6 µM
same,LC50,SF-295,57.5 µM
same,TGI,SF-295,30.9 µM
same,GI50,SF-539,1380 nM
same,LC50,SF-539,7.07 µM
same,TGI,SF-539,3.16 µM
same,GI50,SNB-19,3.02 µM
same,TGI,SNB-19,13.8 µM
same,CC50,SNB-19,60.2 µM
same,GI50,OVCAR-8,4.67 µM
same,LC50,OVCAR-8,72.4 µM
same,TGI,OVCAR-8,18.6 µM
same,GI50,ACHN,2.51 µM
same,LC50,ACHN,21.4 µM
same,TGI,ACHN,6.16 µM
same,GI50,SN12C,4.67 µM
same,LC50,SN12C,60.2 µM
same,TGI,SN12C,18.2 µM
same,GI50,TK-10,2.45 µM
same,LC50 (50% lethal concentration),TK-10,26.9 µM
same,TGI,TK-10,7.24 µM
same,GI50,UO-31,1.9 µM
same,LC50,UO-31,6.6 µM
same,TGI,UO-31,3.54 µM
same,GI50,DU-145,1730 nM
same,TGI,DU-145,3.09 µM
same,CC50,DU-145,5.62 µM
same,GI50,MCF7 [7],3.63 µM
same,LC50,MCF7 [7],> 100 µM
same,TGI,MCF7 [7],37.1 µM
same,GI50,NCI/ADR-RES,12.6 µM
same,LC50,NCI/ADR-RES,97.7 µM
same,TGI,NCI/ADR-RES,34.7 µM
same,GI50,MDA-MB-435,7.24 µM
same,LC50,MDA-MB-435,58.9 µM
same,TGI,MDA-MB-435,22.4 µM
same,GI50,BT-549,3.38 µM
same,TGI,BT-549,11 µM
same,CC50,BT-549,34.7 µM
same,GI50,T47D,3020 nM
same,LC50,T47D,> 100 µM
same,TGI,T47D,8.51 µM
same,GI50,Hs-578T,2690 nM
same,LC50 (concentration killing 50% of cells),Hs-578T,83.2 µM
same,TGI,Hs-578T,7.24 µM
same,GI50,HOP-92,6.16 µM
same,LC50,HOP-92,70.8 µM
same,TGI,HOP-92,22.4 µM
same,GI50,HCT-116,5.75 µM
same,TGI,HCT-116,22.4 µM
same,CC50,HCT-116,9.33 µM
